From PMC4685510, “A Cell Biologist’s Field Guide to Aurora Kinase Inhibitors” (Frontiers in Oncology, 2015)
Like-named read-outs stand apart in the source and are kept apart here.

Legend:
Test in all cases: biochemical
Type in all cases: biochemical
[1] = target: 363 human kinases (including Aurora A/B/C) (Homo sapiens, UniProt P22694); details: PKAcb; for remaining activity at 0.1 µM: 100 nM; for remaining activity at 0.1 µM / remaining activity at 0.5 µM: read-out: % Enzyme Activity (relative to DMSO controls)
From the text: (§1) However, the Aurora A/B selectivity ratios derived from our in vitro and in vivo data can be compared to prioritize inhibitors.

[2] = target: T1, 363 human kinases (including Aurora A/B/C) (Homo sapiens, UniProt P20794); details: MAK; for remaining activity at 0.1 µM: 100 nM; for remaining activity at 0.1 µM / remaining activity at 0.5 µM: read-out: % Enzyme Activity (relative to DMSO controls)
T1 sequence (P20794 1-623): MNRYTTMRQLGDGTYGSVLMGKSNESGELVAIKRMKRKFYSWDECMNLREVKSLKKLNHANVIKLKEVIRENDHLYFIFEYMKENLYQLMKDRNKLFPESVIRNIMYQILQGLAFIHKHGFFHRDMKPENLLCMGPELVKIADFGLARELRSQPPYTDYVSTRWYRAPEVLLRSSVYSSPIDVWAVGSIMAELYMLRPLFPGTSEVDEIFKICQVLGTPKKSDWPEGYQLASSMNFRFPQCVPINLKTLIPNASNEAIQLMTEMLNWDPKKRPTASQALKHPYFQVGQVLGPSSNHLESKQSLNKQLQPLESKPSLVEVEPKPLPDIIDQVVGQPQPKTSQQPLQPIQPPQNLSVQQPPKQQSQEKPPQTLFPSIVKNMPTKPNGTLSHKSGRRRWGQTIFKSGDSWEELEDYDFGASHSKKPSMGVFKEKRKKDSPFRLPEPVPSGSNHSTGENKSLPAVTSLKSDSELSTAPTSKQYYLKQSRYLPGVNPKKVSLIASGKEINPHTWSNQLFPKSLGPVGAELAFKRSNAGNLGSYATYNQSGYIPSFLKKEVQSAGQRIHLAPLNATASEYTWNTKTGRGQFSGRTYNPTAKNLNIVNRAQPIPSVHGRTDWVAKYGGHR
From the text: as §1

[3] = target: 363 human kinases (including Aurora A/B/C) (Homo sapiens, UniProt P11362); details: for remaining activity at 0.1 µM / remaining activity at 0.5 µM: read-out: % Enzyme Activity (relative to DMSO controls)
From the text: as §1

[4] = target: 363 human kinases (including Aurora A/B/C) (Homo sapiens, UniProt O14578); details: STK21/CIT; for remaining activity at 0.1 µM: 100 nM; for remaining activity at 0.1 µM / remaining activity at 0.5 µM: read-out: % Enzyme Activity (relative to DMSO controls)
From the text: as §1

[5] = target: 363 human kinases (including Aurora A/B/C) (Homo sapiens, UniProt Q9HBH9); details: MNK2; for remaining activity at 0.1 µM: 100 nM; for remaining activity at 0.1 µM / remaining activity at 0.5 µM: read-out: % Enzyme Activity (relative to DMSO controls)
From the text: as §1

[6] = target: 363 human kinases (including Aurora A/B/C) (Homo sapiens, UniProt Q9P0L2); details: MARK1; for remaining activity at 0.1 µM: 100 nM; for remaining activity at 0.1 µM / remaining activity at 0.5 µM: read-out: % Enzyme Activity (relative to DMSO controls)
From the text: as §1

[7] = target: 363 human kinases (including Aurora A/B/C) (Homo sapiens, UniProt P11309); details: PIM1; for remaining activity at 0.1 µM: 100 nM; for remaining activity at 0.1 µM / remaining activity at 0.5 µM: read-out: % Enzyme Activity (relative to DMSO controls)
From the text: as §1

[8] = target: 363 human kinases (including Aurora A/B/C) (Homo sapiens, UniProt P37023); details: ALK1/ACVRL1, [ATP] 100 µM; for remaining activity at 0.1 µM: 100 nM; for remaining activity at 0.1 µM / remaining activity at 0.5 µM: read-out: % Enzyme Activity (relative to DMSO controls)
From the text: as §1

[9] = target: T2, 363 human kinases (including Aurora A/B/C) (Homo sapiens, UniProt P41743); details: PKCiota; for remaining activity at 0.1 µM: 100 nM; for remaining activity at 0.1 µM / remaining activity at 0.5 µM: read-out: % Enzyme Activity (relative to DMSO controls)
T2 sequence (P41743 1-596): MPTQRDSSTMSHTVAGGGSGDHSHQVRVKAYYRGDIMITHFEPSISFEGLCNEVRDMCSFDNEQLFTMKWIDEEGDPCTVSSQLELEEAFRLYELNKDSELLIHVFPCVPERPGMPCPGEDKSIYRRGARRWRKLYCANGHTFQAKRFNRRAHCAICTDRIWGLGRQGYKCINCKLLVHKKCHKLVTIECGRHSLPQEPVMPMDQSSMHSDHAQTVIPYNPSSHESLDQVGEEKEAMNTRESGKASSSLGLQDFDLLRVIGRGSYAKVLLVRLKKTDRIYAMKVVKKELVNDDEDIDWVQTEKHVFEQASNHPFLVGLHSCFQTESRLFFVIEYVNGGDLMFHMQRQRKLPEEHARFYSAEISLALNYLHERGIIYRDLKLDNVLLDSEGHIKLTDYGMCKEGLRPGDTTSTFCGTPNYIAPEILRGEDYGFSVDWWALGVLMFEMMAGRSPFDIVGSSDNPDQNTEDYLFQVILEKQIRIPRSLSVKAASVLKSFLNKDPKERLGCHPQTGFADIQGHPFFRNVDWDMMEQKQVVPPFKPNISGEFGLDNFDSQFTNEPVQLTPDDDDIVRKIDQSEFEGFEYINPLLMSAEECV
From the text: as §1

[10] = target: 363 human kinases (including Aurora A/B/C) (Homo sapiens, UniProt P22607); details: FGFR3, [ATP] 30 µM; for remaining activity at 0.1 µM: 100 nM; for remaining activity at 0.1 µM / remaining activity at 0.5 µM: read-out: % Enzyme Activity (relative to DMSO controls)
From the text: as §1

[11] = target: 363 human kinases (including Aurora A/B/C) (Homo sapiens, UniProt Q9Y4K4); details: KHS/MAP4K5; for remaining activity at 0.1 µM: 100 nM; for remaining activity at 0.1 µM / remaining activity at 0.5 µM: read-out: % Enzyme Activity (relative to DMSO controls)
From the text: as §1

[12] = target: 363 human kinases (including Aurora A/B/C) (Homo sapiens, UniProt Q00537); details: CDK17/cyclin Y (PCTK2), [ATP] 50 µM; for remaining activity at 0.1 µM: 100 nM; for remaining activity at 0.1 µM / remaining activity at 0.5 µM: read-out: % Enzyme Activity (relative to DMSO controls)
From the text: as §1

[13] = target: 363 human kinases (including Aurora A/B/C) (Homo sapiens, UniProt P78368); details: CK1g2, [ATP] 100 µM; for remaining activity at 0.1 µM: 100 nM; for remaining activity at 0.1 µM / remaining activity at 0.5 µM: read-out: % Enzyme Activity (relative to DMSO controls)
From the text: as §1

[14] = target: 363 human kinases (including Aurora A/B/C) (Homo sapiens, UniProt P49760); details: CLK2, [ATP] 50 µM; for remaining activity at 0.1 µM: 100 nM; for remaining activity at 0.1 µM / remaining activity at 0.5 µM: read-out: % Enzyme Activity (relative to DMSO controls)
From the text: as §1

[15] = target: 363 human kinases (including Aurora A/B/C) (Homo sapiens, UniProt Q92918); details: HPK1/MAP4K1; for remaining activity at 0.1 µM: 100 nM; for remaining activity at 0.1 µM / remaining activity at 0.5 µM: read-out: % Enzyme Activity (relative to DMSO controls)
363 human kinases (including Aurora A/B/C) (Homo sapiens, UniProt Q92918), sequence (Q92918 whole entry): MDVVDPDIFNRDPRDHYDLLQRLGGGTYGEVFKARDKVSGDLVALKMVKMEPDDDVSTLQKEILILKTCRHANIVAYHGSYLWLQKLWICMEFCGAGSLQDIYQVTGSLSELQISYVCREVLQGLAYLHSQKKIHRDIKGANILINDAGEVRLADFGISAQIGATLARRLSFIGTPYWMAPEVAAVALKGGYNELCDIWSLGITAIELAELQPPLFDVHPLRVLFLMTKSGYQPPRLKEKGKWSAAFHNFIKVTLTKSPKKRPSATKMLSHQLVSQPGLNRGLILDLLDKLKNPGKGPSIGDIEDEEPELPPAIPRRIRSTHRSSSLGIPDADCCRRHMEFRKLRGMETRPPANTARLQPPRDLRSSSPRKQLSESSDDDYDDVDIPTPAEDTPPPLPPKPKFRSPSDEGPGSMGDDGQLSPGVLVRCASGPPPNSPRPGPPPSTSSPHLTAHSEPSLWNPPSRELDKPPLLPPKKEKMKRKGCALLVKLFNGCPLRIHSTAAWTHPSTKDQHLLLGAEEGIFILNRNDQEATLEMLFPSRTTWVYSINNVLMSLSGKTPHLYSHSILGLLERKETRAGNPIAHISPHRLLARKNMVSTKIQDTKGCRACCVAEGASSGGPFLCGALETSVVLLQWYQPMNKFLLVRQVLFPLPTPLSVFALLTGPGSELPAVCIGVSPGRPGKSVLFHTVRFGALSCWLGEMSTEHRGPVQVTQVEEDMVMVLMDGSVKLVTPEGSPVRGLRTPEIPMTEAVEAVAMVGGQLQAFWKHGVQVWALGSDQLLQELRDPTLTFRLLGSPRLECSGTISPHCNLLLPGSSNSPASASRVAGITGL
From the text: as §1

363 human kinases (including Aurora A/B/C) (Homo sapiens, UniProt P22607), sequence (P22607 23-806): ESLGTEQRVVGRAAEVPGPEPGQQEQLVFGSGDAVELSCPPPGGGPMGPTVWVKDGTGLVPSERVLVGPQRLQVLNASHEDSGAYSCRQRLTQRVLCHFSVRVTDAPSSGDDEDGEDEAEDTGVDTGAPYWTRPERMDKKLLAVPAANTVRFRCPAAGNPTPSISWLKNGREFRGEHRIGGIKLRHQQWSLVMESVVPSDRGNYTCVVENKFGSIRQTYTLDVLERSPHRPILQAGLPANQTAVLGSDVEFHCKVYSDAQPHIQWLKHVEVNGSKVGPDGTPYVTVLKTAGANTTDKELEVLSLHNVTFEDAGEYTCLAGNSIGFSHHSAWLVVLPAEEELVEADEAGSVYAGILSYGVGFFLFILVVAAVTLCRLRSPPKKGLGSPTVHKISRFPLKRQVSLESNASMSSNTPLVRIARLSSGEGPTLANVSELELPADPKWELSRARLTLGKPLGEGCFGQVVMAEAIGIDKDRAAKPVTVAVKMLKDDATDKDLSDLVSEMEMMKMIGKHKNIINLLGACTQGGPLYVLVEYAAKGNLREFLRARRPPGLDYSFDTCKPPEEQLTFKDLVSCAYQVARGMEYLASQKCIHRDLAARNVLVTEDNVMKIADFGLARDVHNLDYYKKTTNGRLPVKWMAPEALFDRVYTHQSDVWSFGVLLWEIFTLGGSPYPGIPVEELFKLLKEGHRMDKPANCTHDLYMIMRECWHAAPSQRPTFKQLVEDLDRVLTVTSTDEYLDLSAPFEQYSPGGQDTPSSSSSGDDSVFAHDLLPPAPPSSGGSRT
363 human kinases (including Aurora A/B/C) (Homo sapiens, UniProt P49760), sequence (P49760 whole entry): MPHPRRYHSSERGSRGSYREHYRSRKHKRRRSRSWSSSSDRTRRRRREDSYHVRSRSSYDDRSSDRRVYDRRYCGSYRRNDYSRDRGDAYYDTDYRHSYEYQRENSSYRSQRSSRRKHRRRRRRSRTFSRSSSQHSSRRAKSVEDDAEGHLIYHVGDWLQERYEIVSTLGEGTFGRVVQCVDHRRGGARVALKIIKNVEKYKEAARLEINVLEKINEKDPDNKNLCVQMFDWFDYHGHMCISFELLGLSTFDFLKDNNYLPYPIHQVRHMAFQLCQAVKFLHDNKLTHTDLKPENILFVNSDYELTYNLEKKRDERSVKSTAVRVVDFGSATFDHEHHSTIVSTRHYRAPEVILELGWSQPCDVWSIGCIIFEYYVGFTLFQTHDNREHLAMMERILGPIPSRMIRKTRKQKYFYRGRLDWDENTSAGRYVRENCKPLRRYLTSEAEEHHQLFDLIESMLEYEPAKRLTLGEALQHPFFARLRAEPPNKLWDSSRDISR
363 human kinases (including Aurora A/B/C) (Homo sapiens, UniProt Q9Y4K4), sequence (Q9Y4K4 whole entry): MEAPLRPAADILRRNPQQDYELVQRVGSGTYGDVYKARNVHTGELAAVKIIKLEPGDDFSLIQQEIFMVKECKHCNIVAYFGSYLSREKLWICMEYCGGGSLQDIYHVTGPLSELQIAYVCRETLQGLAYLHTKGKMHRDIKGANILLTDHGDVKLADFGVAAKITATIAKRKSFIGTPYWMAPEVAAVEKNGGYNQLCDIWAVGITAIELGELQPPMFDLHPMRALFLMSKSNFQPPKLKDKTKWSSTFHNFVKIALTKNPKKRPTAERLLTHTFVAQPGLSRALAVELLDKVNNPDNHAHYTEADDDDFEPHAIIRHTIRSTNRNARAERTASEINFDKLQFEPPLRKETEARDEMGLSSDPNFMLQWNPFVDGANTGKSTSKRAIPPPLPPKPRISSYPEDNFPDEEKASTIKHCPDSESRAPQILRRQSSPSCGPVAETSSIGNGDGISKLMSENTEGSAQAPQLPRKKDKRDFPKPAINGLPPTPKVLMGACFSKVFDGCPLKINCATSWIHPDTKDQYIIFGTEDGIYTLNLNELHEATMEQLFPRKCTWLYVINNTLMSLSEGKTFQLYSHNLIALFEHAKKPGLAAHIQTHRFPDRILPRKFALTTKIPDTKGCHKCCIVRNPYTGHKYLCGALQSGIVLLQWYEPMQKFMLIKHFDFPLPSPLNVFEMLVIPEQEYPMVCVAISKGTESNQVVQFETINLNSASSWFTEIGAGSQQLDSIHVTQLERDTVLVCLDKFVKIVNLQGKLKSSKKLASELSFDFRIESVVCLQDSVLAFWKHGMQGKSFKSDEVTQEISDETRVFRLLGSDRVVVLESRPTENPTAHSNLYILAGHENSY
363 human kinases (including Aurora A/B/C) (Homo sapiens, UniProt P78368), sequence (P78368 whole entry): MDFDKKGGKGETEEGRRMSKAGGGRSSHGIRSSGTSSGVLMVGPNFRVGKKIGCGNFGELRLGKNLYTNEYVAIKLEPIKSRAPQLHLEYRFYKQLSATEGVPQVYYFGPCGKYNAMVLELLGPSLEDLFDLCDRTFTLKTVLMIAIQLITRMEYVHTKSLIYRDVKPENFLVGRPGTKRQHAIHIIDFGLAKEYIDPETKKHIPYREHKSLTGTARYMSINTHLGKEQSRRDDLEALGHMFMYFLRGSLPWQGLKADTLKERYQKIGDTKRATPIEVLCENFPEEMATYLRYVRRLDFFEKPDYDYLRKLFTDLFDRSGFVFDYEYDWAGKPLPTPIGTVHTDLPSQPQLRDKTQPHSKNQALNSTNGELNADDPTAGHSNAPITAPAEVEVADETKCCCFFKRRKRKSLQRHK
363 human kinases (including Aurora A/B/C) (Homo sapiens, UniProt Q9P0L2), sequence (Q9P0L2 whole entry): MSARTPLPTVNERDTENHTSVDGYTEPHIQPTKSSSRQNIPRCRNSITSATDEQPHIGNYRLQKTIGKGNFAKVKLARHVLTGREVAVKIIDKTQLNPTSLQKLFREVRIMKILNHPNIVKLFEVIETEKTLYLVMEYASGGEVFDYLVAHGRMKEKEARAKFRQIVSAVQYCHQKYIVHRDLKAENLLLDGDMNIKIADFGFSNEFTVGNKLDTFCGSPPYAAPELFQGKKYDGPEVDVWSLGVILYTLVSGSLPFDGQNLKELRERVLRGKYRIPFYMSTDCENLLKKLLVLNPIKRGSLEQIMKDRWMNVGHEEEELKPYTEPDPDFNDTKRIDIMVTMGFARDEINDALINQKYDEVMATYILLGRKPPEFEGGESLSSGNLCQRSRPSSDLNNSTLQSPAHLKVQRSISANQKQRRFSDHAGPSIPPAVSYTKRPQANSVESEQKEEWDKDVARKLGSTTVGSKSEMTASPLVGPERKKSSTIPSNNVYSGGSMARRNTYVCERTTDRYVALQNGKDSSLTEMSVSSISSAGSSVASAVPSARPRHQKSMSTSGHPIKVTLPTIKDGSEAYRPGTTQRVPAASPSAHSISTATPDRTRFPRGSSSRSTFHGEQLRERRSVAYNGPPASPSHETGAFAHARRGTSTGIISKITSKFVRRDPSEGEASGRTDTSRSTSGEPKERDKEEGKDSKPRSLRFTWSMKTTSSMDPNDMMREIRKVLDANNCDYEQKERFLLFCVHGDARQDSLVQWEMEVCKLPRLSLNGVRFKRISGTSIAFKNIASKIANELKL
363 human kinases (including Aurora A/B/C) (Homo sapiens, UniProt Q00537), sequence (Q00537 whole entry): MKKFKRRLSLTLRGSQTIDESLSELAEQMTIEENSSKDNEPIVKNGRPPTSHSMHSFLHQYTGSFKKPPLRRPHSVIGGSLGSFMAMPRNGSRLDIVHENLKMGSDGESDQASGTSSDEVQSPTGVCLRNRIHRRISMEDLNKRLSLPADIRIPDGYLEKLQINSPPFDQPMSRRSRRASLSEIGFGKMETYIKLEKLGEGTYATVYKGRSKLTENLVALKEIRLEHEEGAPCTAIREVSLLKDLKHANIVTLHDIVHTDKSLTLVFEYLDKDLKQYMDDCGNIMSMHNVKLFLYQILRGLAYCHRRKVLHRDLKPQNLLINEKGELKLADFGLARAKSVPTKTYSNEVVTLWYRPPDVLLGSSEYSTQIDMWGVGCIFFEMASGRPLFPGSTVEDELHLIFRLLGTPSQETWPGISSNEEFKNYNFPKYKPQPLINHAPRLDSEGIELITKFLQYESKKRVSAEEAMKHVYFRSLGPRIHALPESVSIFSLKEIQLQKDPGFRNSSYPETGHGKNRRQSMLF
363 human kinases (including Aurora A/B/C) (Homo sapiens, UniProt P11309), sequence (P11309 whole entry): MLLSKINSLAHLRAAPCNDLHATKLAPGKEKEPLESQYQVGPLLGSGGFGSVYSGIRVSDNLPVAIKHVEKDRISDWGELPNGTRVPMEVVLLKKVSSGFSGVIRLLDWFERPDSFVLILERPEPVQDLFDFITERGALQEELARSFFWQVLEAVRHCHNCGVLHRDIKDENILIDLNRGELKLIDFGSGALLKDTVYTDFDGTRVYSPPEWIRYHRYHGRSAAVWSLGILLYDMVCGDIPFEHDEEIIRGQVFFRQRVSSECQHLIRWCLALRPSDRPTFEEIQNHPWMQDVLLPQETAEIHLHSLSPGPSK

Compound CCn1cc(-c2ccnc3[nH]c(-c4cccc(CN(C)C)c4)cc23)c(-c2ccc(NC(=O)N(C)C)cc2)n1 [GSK1070916] has a remaining activity at 0.1 µM [1] of 98%, a remaining activity at 0.1 µM [2] of 100% and a remaining activity at 0.1 µM [3] of 60.2%. It also gave a remaining activity at 0.1 µM [4] of 100%, a remaining activity at 0.1 µM [5] of 96.9% and a remaining activity at 0.1 µM [6] of 93%. For the same compound, the remaining activity at 0.1 µM [7] was 102%, the remaining activity at 0.1 µM [8] was 98.2% and the remaining activity at 0.1 µM [9] was 99.1%. The remaining activity at 0.1 µM [10] was 63.8%, the remaining activity at 0.1 µM [11] was 84% and the remaining activity at 0.1 µM [12] was 90.9%. For the same compound, the remaining activity at 0.1 µM [13] was 89.5%, the remaining activity at 0.1 µM [14] was 93.6% and the remaining activity at 0.1 µM [15] was 109%.
With O=C(O)[C@]1(Cc2cccc(Nc3nccs3)n2)CC[C@@H](Oc2cccc(Cl)c2F)CC1 [MK-5108] the remaining activity at 0.1 µM [1] was 97.1%, the remaining activity at 0.5 µM ([1]; 500 nM) was 98.5% and the remaining activity at 0.1 µM [2] was 84.8%. It also gave a remaining activity at 0.5 µM ([2]; 500 nM) of 79.5%, a remaining activity at 0.1 µM ([3]; FGFR1, [ATP] 5 µM, 100 nM) of 61.8% and a remaining activity at 0.5 µM ([3]; FGFR1, [ATP] 5 µM, 500 nM) of 30.8%. For the same compound, the remaining activity at 0.1 µM [4] was 115%, the remaining activity at 0.5 µM ([4]; 500 nM) was 102% and the remaining activity at 0.1 µM [5] was 105%. The remaining activity at 0.5 µM ([5]; 500 nM) was 95%, the remaining activity at 0.1 µM [6] was 117% and the remaining activity at 0.5 µM ([6]; 500 nM) was 98.6%. For the same compound, the remaining activity at 0.1 µM [7] was 92%, the remaining activity at 0.5 µM ([7]; 500 nM) was 83.8% and the remaining activity at 0.1 µM [8] was 51.3%. The remaining activity at 0.5 µM ([8]; 500 nM) was 36.5%, the remaining activity at 0.1 µM [9] was 94.3% and the remaining activity at 0.5 µM ([9]; 500 nM) was 102%. For the same compound, the remaining activity at 0.1 µM [10] was 64.9%, the remaining activity at 0.5 µM ([10]; 500 nM) was 31.5% and the remaining activity at 0.1 µM [11] was 96.2%. For the same compound, the remaining activity at 0.5 µM ([11]; 500 nM) was 92.4%, the remaining activity at 0.1 µM [12] was 95.4% and the remaining activity at 0.5 µM ([12]; 500 nM) was 81.9%. The remaining activity at 0.1 µM [13] was 107%, the remaining activity at 0.5 µM ([13]; 500 nM) was 80.2% and the remaining activity at 0.1 µM [14] was 72.9%. The remaining activity at 0.5 µM ([14]; 500 nM) was 25.4%, the remaining activity at 0.1 µM [15] was 105% and the remaining activity at 0.5 µM ([15]; 500 nM) was 82.1%.
O=C(c1cccc(Cl)c1F)N1CCN(Cc2cccc(Nc3nccs3)n2)CC1 [MK-8745] was tested, and the “% Enzyme Activity (relative to DMSO controls)” value ([1]; 500 nM) was 99.52%, the remaining activity at 0.5 µM ([1]; 500 nM) was 99.5% and the “% Enzyme Activity (relative to DMSO controls)” value ([2]; 500 nM) was 86.85%. For the same compound, the remaining activity at 0.5 µM ([2]; 500 nM) was 87%, the “% Enzyme Activity (relative to DMSO controls)” value ([3]; FGFR1, [ATP] 5 µM, 500 nM) was 93.82% and the remaining activity at 0.5 µM ([3]; FGFR1, [ATP] 5 µM, 500 nM) was 97.1%. For the same compound, the “% Enzyme Activity (relative to DMSO controls)” value ([4]; 500 nM) was 101.37%, the remaining activity at 0.5 µM ([4]; 500 nM) was 104% and the “% Enzyme Activity (relative to DMSO controls)” value ([5]; 500 nM) was 97.70%. For the same compound, the remaining activity at 0.5 µM ([5]; 500 nM) was 97.9%, the “% Enzyme Activity (relative to DMSO controls)” value ([6]; 500 nM) was 96.30% and the remaining activity at 0.5 µM ([6]; 500 nM) was 96.5%. For the same compound, the “% Enzyme Activity (relative to DMSO controls)” value ([7]; 500 nM) was 98.06%, the remaining activity at 0.5 µM ([7]; 500 nM) was 101% and the “% Enzyme Activity (relative to DMSO controls)” value ([8]; 500 nM) was 71.54%. The remaining activity at 0.5 µM ([8]; 500 nM) was 75.1%, the “% Enzyme Activity (relative to DMSO controls)” value ([9]; 500 nM) was 95.15% and the remaining activity at 0.5 µM ([9]; 500 nM) was 98%. The “% Enzyme Activity (relative to DMSO controls)” value ([10]; 500 nM) was 95.75%, the remaining activity at 0.5 µM ([10]; 500 nM) was 95.9% and the “% Enzyme Activity (relative to DMSO controls)” value ([11]; 500 nM) was 93.71%. The remaining activity at 0.5 µM ([11]; 500 nM) was 94%, the “% Enzyme Activity (relative to DMSO controls)” value ([12]; 500 nM) was 86.82% and the remaining activity at 0.5 µM ([12]; 500 nM) was 87%. For the same compound, the “% Enzyme Activity (relative to DMSO controls)” value ([13]; 500 nM) was 86.46%, the remaining activity at 0.5 µM ([13]; 500 nM) was 87.5% and the “% Enzyme Activity (relative to DMSO controls)” value ([14]; 500 nM) was 95.24%. For the same compound, the remaining activity at 0.5 µM ([14]; 500 nM) was 99%, the “% Enzyme Activity (relative to DMSO controls)” value ([15]; 500 nM) was 81.94% and the remaining activity at 0.5 µM ([15]; 500 nM) was 87.3%.
